Source: ChEMBL document CHEMBL3259797, “Radiosyntheses and in vivo evaluation of carbon-11 PET tracers for PDE10A in the brain of rodent and nonhuman primate” (Bioorg Med Chem, 2014)

What was measured:
Rattus norvegicus [1] = test: Biodistribution in Sprague-Dawley rat fat at 14.8 to 18.5 MBq, iv measured at 5 mins post-injection by gamma counting analysis; assay type: ADME, organism-based, Adipose tissue; details: in vivo
Heart [2] = test: Biodistribution in Sprague-Dawley rat heart at 14.8 to 18.5 MBq, iv measured at 30 mins post-injection by gamma counting analysis; assay type: ADME, organism-based; details: in vivo, 0.5 h
Heart [3] = test: Biodistribution in Sprague-Dawley rat heart at 14.8 to 18.5 MBq, iv measured at 60 mins post-injection by gamma counting analysis; assay type: ADME, organism-based; details: in vivo, 1 h
Striatum [4] = test: Biodistribution in Sprague-Dawley rat striatum at 14.8 to 18.5 MBq, iv measured at 5 mins post-injection by gamma counting analysis; assay type: ADME, organism-based; details: in vivo
Blood [5] = test: Biodistribution in Sprague-Dawley rat blood at 14.8 to 18.5 MBq, iv measured at 60 mins post-injection by gamma counting analysis; assay type: ADME, organism-based; details: in vivo, 1 h
Blood [6] = test: Biodistribution in Sprague-Dawley rat blood at 14.8 to 18.5 MBq, iv measured at 30 mins post-injection by gamma counting analysis; assay type: ADME, organism-based; details: in vivo, 0.5 h
Lung [7] = test: Biodistribution in Sprague-Dawley rat lung at 14.8 to 18.5 MBq, iv measured at 60 mins post-injection by gamma counting analysis; assay type: ADME, organism-based; details: in vivo, 1 h
Brain [8] = test: Biodistribution in Sprague-Dawley rat brain at 14.8 to 18.5 MBq, iv measured at 60 mins post-injection by gamma counting analysis; assay type: ADME, organism-based; details: in vivo, 1 h
Cerebellum [9] = test: Biodistribution in Sprague-Dawley rat cerebellum at 14.8 to 18.5 MBq, iv measured at 30 mins post-injection by gamma counting analysis; assay type: ADME, organism-based; details: in vivo, 0.5 h
Blood [10] = test: Biodistribution in Sprague-Dawley rat blood at 14.8 to 18.5 MBq, iv measured at 5 mins post-injection by gamma counting analysis; assay type: ADME, organism-based; details: in vivo
Lung [11] = test: Biodistribution in Sprague-Dawley rat lung at 14.8 to 18.5 MBq, iv measured at 5 mins post-injection by gamma counting analysis; assay type: ADME, organism-based; details: in vivo
Liver [12] = test: Biodistribution in Sprague-Dawley rat liver at 14.8 to 18.5 MBq, iv measured at 5 mins post-injection by gamma counting analysis; assay type: ADME, organism-based; details: in vivo
Kidney [13] = test: Biodistribution in Sprague-Dawley rat kidney at 14.8 to 18.5 MBq, iv measured at 5 mins post-injection by gamma counting analysis; assay type: ADME, organism-based; details: in vivo
Brain [14] = test: Biodistribution in Sprague-Dawley rat brain at 14.8 to 18.5 MBq, iv measured at 5 mins post-injection by gamma counting analysis; assay type: ADME, organism-based; details: in vivo
Muscle tissue [15] = test: Biodistribution in Sprague-Dawley rat muscle at 14.8 to 18.5 MBq, iv measured at 60 mins post-injection by gamma counting analysis; assay type: ADME, organism-based; details: in vivo, 1 h
Cerebellum [16] = test: Biodistribution in Sprague-Dawley rat cerebellum at 14.8 to 18.5 MBq, iv measured at 5 mins post-injection by gamma counting analysis; assay type: ADME, organism-based; details: in vivo
Muscle tissue [17] = test: Biodistribution in Sprague-Dawley rat muscle at 14.8 to 18.5 MBq, iv measured at 5 mins post-injection by gamma counting analysis; assay type: ADME, organism-based; details: in vivo
Lung [18] = test: Biodistribution in Sprague-Dawley rat lung at 14.8 to 18.5 MBq, iv measured at 30 mins post-injection by gamma counting analysis; assay type: ADME, organism-based; details: in vivo, 0.5 h
Kidney [19] = test: Biodistribution in Sprague-Dawley rat kidney at 14.8 to 18.5 MBq, iv measured at 60 mins post-injection by gamma counting analysis; assay type: ADME, organism-based; details: in vivo, 1 h
Liver [20] = test: Biodistribution in Sprague-Dawley rat liver at 14.8 to 18.5 MBq, iv measured at 30 mins post-injection by gamma counting analysis; assay type: ADME, organism-based; details: in vivo, 0.5 h
Kidney [21] = test: Biodistribution in Sprague-Dawley rat kidney at 14.8 to 18.5 MBq, iv measured at 30 mins post-injection by gamma counting analysis; assay type: ADME, organism-based; details: in vivo, 0.5 h
Rattus norvegicus [22] = test: Biodistribution in Sprague-Dawley rat fat at 14.8 to 18.5 MBq, iv measured at 30 mins post-injection by gamma counting analysis; assay type: ADME, organism-based, Adipose tissue; details: in vivo, 0.5 h
Striatum [23] = test: Biodistribution in Sprague-Dawley rat striatum at 14.8 to 18.5 MBq, iv measured at 60 mins post-injection by gamma counting analysis; assay type: ADME, organism-based; details: in vivo, 1 h
Cerebellum [24] = test: Biodistribution in Sprague-Dawley rat cerebellum at 14.8 to 18.5 MBq, iv measured at 60 mins post-injection by gamma counting analysis; assay type: ADME, organism-based; details: in vivo, 1 h
Heart [25] = test: Biodistribution in Sprague-Dawley rat heart at 14.8 to 18.5 MBq, iv measured at 5 mins post-injection by gamma counting analysis; assay type: ADME, organism-based; details: in vivo
Liver [26] = test: Biodistribution in Sprague-Dawley rat liver at 14.8 to 18.5 MBq, iv measured at 60 mins post-injection by gamma counting analysis; assay type: ADME, organism-based; details: in vivo, 1 h
Muscle tissue [27] = test: Biodistribution in Sprague-Dawley rat muscle at 14.8 to 18.5 MBq, iv measured at 30 mins post-injection by gamma counting analysis; assay type: ADME, organism-based; details: in vivo, 0.5 h
Striatum [28] = test: Biodistribution in Sprague-Dawley rat striatum at 14.8 to 18.5 MBq, iv measured at 30 mins post-injection by gamma counting analysis; assay type: ADME, organism-based; details: in vivo, 0.5 h
Rattus norvegicus [29] = test: Biodistribution in Sprague-Dawley rat fat at 14.8 to 18.5 MBq, iv measured at 60 mins post-injection by gamma counting analysis; assay type: ADME, organism-based, Adipose tissue; details: in vivo, 1 h
Brain [30] = test: Biodistribution in Sprague-Dawley rat brain at 14.8 to 18.5 MBq, iv measured at 30 mins post-injection by gamma counting analysis; assay type: ADME, organism-based; details: in vivo, 0.5 h
Nucleic Acid = test: Ratio of drug level in striatum to cerebellum in Sprague-Dawley rat at 14.8 to 18.5 MBq, iv measured at 30 mins post-injection by gamma counting analysis; assay type: ADME, organism-based; details: in vivo, 0.5 h

Drug uptake (Rattus norvegicus [1]) [% ID/g] | Drug uptake (Heart [2]) [% ID/g] | Drug uptake (Heart [3]) [% ID/g] | Drug uptake (Striatum [4]) [% ID/g] | Drug uptake (Blood [5]) [% ID/g] | Drug uptake (Blood [6]) [% ID/g] | Drug uptake (Lung [7]) [% ID/g] | Drug uptake (Brain [8]) [% ID/g] | Drug uptake (Cerebellum [9]) [% ID/g] | Drug uptake (Blood [10]) [% ID/g] | Drug uptake (Lung [11]) [% ID/g] | Drug uptake (Liver [12]) [% ID/g] | Drug uptake (Kidney [13]) [% ID/g] | Drug uptake (Brain [14]) [% ID/g] | Drug uptake (Muscle tissue [15]) [% ID/g] | Drug uptake (Cerebellum [16]) [% ID/g] | Drug uptake (Muscle tissue [17]) [% ID/g] | Drug uptake (Lung [18]) [% ID/g] | Drug uptake (Kidney [19]) [% ID/g] | Drug uptake (Liver [20]) [% ID/g] | further results | SMILES
0.139 | 0.264 | 0.182 | 0.293 | 0.21 | 0.275 | 0.249 | 0.074 | 0.09 | 0.282 | 0.744 | 5.357 | 1.333 | 0.249 | 0.129 | 0.251 | 0.151 | 0.389 | 0.637 | 3.172 | Drug uptake (Kidney [21]): 0.883 % ID/g; Drug uptake (Rattus norvegicus [22]): 0.221 % ID/g; Drug uptake (Striatum [23]): 0.089 % ID/g; Drug uptake (Cerebellum [24]): 0.066 % ID/g; Drug uptake (Heart [25]): 0.416 % ID/g; Drug uptake (Liver [26]): 1.724 % ID/g; Drug uptake (Muscle tissue [27]): 0.175 % ID/g; Drug uptake (Striatum [28]): 0.16 % ID/g; Drug uptake (Rattus norvegicus [29]): 0.135 % ID/g; Drug uptake (Brain [30]): 0.105 % ID/g | Cn1cc(-c2ccncc2)c(-c2ccc(OCc3ccc4cc(O[11CH3])ccc4n3)cc2)n1
0.066 | 0.132 | 0.103 | 0.151 | 0.067 | 0.067 | 0.107 | 0.015 | 0.024 | 0.099 | 0.643 | 3.312 | 1.744 | 0.091 | 0.052 | 0.094 | 0.146 | 0.156 | 0.575 | 4.43 | Ratio (Nucleic Acid): 3.6; Drug uptake (Kidney [21]): 0.645 % ID/g; Drug uptake (Rattus norvegicus [22]): 0.139 % ID/g; Drug uptake (Striatum [23]): 0.037 % ID/g; Drug uptake (Cerebellum [24]): 0.015 % ID/g; Drug uptake (Heart [25]): 0.335 % ID/g; Drug uptake (Liver [26]): 4.588 % ID/g; Drug uptake (Muscle tissue [27]): 0.093 % ID/g; Drug uptake (Striatum [28]): 0.083 % ID/g; Drug uptake (Rattus norvegicus [29]): 0.139 % ID/g; Drug uptake (Brain [30]): 0.025 % ID/g | Cn1ncc(-c2ccncc2)c1-c1ccc(OCc2cc(O[11CH3])c3ccccc3n2)cc1
